Data from publication PMC9967275, “Screening the Pathogen Box to Discover and Characterize New Cruzain and TbrCatL Inhibitors” (Pathogens, 2023).
Read-outs that look alike come from different tables or passages of the source.

Columns and labels:
cruzain = cruzain (Trypanosoma cruzi, UniProt P25779); test: biochemical; conditions: for Cruzain 0’ Inhibition / Cruzain 10’ Inhibition: sheet "Screening results";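 on Cruzain 0’ Inhibition: at 5 µM compound concentration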;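 on Cruzain 10’ Inhibition: at 5 µM compound concentration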;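 on Cruzain Inhibition 0’: at 5 µM compound concentration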;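 on Cruzain Inhibition 10’: at 5 µM compound concentration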
In short: (§1)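 Recombinant enzymes assayed by Z-Phe-Arg-AMC cleavage at 25 °C, fluorescence 340/440 nm over 5–7 min, with 10 min or no enzyme–compound preincubation.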

TbrCatL = molecular target: T1, TbrCatL (Trypanosoma brucei rhodesiense, UniProt Q95PM0); test: TbrCatL enzymatic inhibition assay (cleavage of fluorogenic substrate Z-FR-AMC); type: biochemical; conditions: for TbrCatL 0’ Inhibition / TbrCatL 10’ Inhibition: sheet "Screening results";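 on TbrCatL 0’ Inhibition: at 5 µM compound concentration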;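 on TbrCatL 10’ Inhibition: at 5 µM compound concentration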;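 on TbrCatL Inhibition 0’: at 5 µM compound concentration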;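 on TbrCatL Inhibition 10’: at 5 µM compound concentration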
T1 construct: Conor Caffrey (University of California San Diego)
In short: as §1

[1] = 0’ (no pre-incubation), sheet Screening results
[2] = 10’ (pre-incubation), sheet Screening results
[3] = 0’ (pre-incubation time), Pathogen Box screening results
[4] = 10’ (pre-incubation time), Pathogen Box screening results

cruzain, sequence (P25779 123-337 limits assumed): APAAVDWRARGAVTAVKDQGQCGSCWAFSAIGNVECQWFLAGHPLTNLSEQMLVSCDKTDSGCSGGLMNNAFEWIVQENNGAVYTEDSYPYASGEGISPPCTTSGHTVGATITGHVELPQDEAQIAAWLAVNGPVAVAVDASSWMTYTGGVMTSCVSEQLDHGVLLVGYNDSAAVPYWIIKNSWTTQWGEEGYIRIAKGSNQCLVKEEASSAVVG
T1 sequence (Q95PM0 entry or part of it): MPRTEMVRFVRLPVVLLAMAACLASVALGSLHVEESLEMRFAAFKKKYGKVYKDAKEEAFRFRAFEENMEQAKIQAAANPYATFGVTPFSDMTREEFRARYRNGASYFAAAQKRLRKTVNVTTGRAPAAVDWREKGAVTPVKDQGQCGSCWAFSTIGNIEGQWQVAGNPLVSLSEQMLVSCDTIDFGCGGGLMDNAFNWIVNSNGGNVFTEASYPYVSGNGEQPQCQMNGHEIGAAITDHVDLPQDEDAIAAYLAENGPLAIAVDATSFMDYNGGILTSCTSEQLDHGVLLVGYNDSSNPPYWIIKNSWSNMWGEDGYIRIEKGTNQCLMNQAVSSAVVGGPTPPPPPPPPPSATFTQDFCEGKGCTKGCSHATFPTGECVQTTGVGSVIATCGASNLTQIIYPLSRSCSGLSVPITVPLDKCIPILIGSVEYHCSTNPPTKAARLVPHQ

Row | Compound | Cruzain Inhibition 0’ (cruzain; [1]) | Cruzain Inhibition 10’ (cruzain; [2]) | TbrCatL Inhibition 0’ (TbrCatL; [1]) | TbrCatL Inhibition 10’ (TbrCatL; [2]) | Cruzain 0’ Inhibition (cruzain; 0’ (pre-incubation time)) | Cruzain 10’ Inhibition (cruzain; 10’ (pre-incubation time)) | TbrCatL 0’ Inhibition (TbrCatL; 0’ (pre-incubation time)) | TbrCatL 10’ Inhibition (TbrCatL; 10’ (pre-incubation time)) | other results
1 | CCOc1ccc2cc(-c3nn(CC4CCN(C)CC4)c4ncnc(N)c34)ccc2c1 [MMV688854] | 27% | 11% | 2.7% | -5% | – | – | – | – | –
2 | CN1CCN(c2cc(-c3ccc(F)cc3)nc(-c3ccncc3)n2)CC1 [MMV688888] | 18% | 14% | 19% | 9% | – | – | – | – | –
3 | Clc1ccc(CCNc2cc(-c3ccccc3)nc3ncnn23)cc1 [MMV688889] | 15% | 14% | 20% | 13% | – | – | – | – | –
4 | COc1cc(Br)cc2cc(C(=O)Nc3cccc(C(F)(F)F)c3)c(=O)oc12 [MMV688891] | – | – | – | – | -4.4% | -0.7% | 0% | -2.6% | –
5 | OC[C@H]1O[C@@H](n2c3ccc(Cl)cc3c3c(-c4cc5ccccc5o4)ncnc32)C(O)[C@H]1O (stereo partly drawn) [MMV688921] | – | – | – | – | 4.7% | 11% | 5.5% | 4.4% | –
6 | CCc1nn(C)c(C(=O)NCc2ccc(Oc3ccc(C)cc3)cc2)c1Cl [MMV688934] | 15% | 7.4% | 18% | 14% | – | – | – | – | –
7 | O=C(c1ccco1)N(CCCn1ccnc1)c1nc2c(Cl)cccc2s1 [MMV688936] | 5.6% | -0.2% | 19% | 0.6% | – | – | – | – | –
8 | CCOc1ccc(-c2nc(CNCCc3ccc(F)cc3)cs2)cc1 [MMV688938] | – | – | – | – | 6% | 12% | 3% | -3.6% | –
9 | Cc1ccc2nc(C)c(-c3ccn(Cc4ccccc4)n3)n2c1 [MMV688939] | – | – | – | – | – | – | – | – | Cruzain Inhibition 0’ (cruzain; [3]): -1.4%; Cruzain Inhibition 10’ (cruzain; [4]): -4%; TbrCatL Inhibition 0’ (TbrCatL; [3]): -0.4%; TbrCatL Inhibition 10’ (TbrCatL; [4]): -9%
10 | COc1cc(CN2CCC3(C=Cc4ccccc43)CC2)cc2c1OCO2 [MMV688941] | – | – | – | – | 1.7% | 6% | -3.2% | -4% | –
11 | CC(C)(C)C(O)C(Oc1ccc(-c2ccccc2)cc1)n1cncn1 (stereo not drawn) [MMV688942] | 14% | 9% | 13% | -1.4% | – | – | – | – | –
12 | CC1COC(Cn2cncn2)(c2ccc(Oc3ccc(Cl)cc3)cc2Cl)O1 (stereo not drawn) [MMV688943] | 13% | 10% | 15% | 4% | – | – | – | – | –
13 | Cc1cc(NC(=O)c2ccc(Oc3ccc(Cl)cc3O)o2)no1 [MMV688955] | – | – | – | – | -9% | -13% | -6% | -12% | –
14 | CC(=O)OC[C@H]1O[C@@H]([S-])[C@H](OC(C)=O)[C@@H](OC(C)=O)[C@@H]1OC(C)=O.CC[PH+](CC)CC.[Au] [MMV688978] | – | – | – | – | – | – | – | – | Cruzain Inhibition 0’ (cruzain; [3]): -20%; Cruzain Inhibition 10’ (cruzain; [4]): -71%; TbrCatL Inhibition 0’ (TbrCatL; [3]): -13%; TbrCatL Inhibition 10’ (TbrCatL; [4]): -63%
15 | CCc1cc(=O)n(C)c(SC(C)C(=O)Nc2ccc(F)cc2)n1 (stereo not drawn) [MMV688980] | – | – | – | – | -3.8% | -0.6% | -11% | -14% | –
16 | CCCCCCCCCCCCCCCCOP(=O)([O-])OCC[N+](C)(C)C [MMV688990] | – | – | – | – | – | – | – | – | Cruzain Inhibition 0’ (cruzain; [3]): -0.1%; Cruzain Inhibition 10’ (cruzain; [4]): 0.6%; TbrCatL Inhibition 0’ (TbrCatL; [3]): -2.4%; TbrCatL Inhibition 10’ (TbrCatL; [4]): -12%
17 | CC(=O)Oc1ccccc1C(=O)Nc1ncc([N+](=O)[O-])s1 [MMV688991] | 8% | 4% | 10% | 3.7% | – | – | – | – | –
18 | CNC1C(OC2C(OC3C(O)C(O)C(N=C(N)N)C(O)C3N=C(N)N)OC(C)C2(O)C=O)OC(CO)C(O)C1O (stereo not drawn) [MMV688994] | -4% | -2.3% | 1.1% | 1.5% | – | – | – | – | –
19 | C[C@@H]1[C@H](O)[C@@H](C)/C=C/C=C/C=C/C=C/C=C/C=C/C=C/[C@H](O[C@@H]2O[C@H](C)[C@@H](O)[C@H](N)[C@@H]2O)C[C@@H]2O[C@](O)(C[C@@H](O)C[C@@H](O)[C@H](O)CC[C@@H](O)C[C@@H](O)CC(=O)O[C@H]1C)C[C@H](O)[C@H]2C(=O)O [MMV689000] | – | – | – | – | 10% | 10% | 11% | 9% | –
20 | Cc1ccc(S(=O)(=O)Nc2ccc(CN3CCN(C(=O)c4cccc(C#N)c4)CC3)cc2)cc1 [MMV689028] | -0.6% | 8% | -0.6% | -0.3% | – | – | – | – | –

Row | Compound | Cruzain Inhibition 0’ (cruzain; [1]) | Cruzain Inhibition 10’ (cruzain; [2]) | TbrCatL Inhibition 0’ (TbrCatL; [1]) | TbrCatL Inhibition 10’ (TbrCatL; [2]) | Cruzain 0’ Inhibition (cruzain; 0’ (pre-incubation time)) | Cruzain 10’ Inhibition (cruzain; 10’ (pre-incubation time)) | TbrCatL 0’ Inhibition (TbrCatL; 0’ (pre-incubation time)) | TbrCatL 10’ Inhibition (TbrCatL; 10’ (pre-incubation time)) | other results
21 | COc1ccc(S(=O)(=O)Nc2ccc(CN3CCN(C(=O)c4cccc(C#N)c4)CC3)cc2)cc1 [MMV689029] | – | – | – | – | 2.5% | 5.4% | 0.7% | 1.2% | –
22 | Clc1ccc(CN2CCN(C3=NCCN3)CC2)cc1Cl [MMV689060] | -3% | -0.1% | -5% | 2% | – | – | – | – | –
23 | CC(=O)Nc1ccc(-c2noc(CC3CCCN(Cc4cccc(F)c4C)C3)n2)cc1 (stereo not drawn) [MMV689061] | 1.2% | 3.6% | 0% | 0.8% | – | – | – | – | –
24 | FC(F)(F)c1ccc(N(c2cccnc2)C2CCN(c3ccc(C(F)(F)F)cn3)CC2)cc1 [MMV689243] | – | – | – | – | 2.3% | -3% | -9% | -5% | –
25 | O=C([C@@H](c1ccc(Cl)cc1)c1cccnc1)N1CCN(c2ccc(C(F)(F)F)cc2)CC1 [MMV689244] | – | – | – | – | 2.7% | -3.2% | 6.4% | -2.8% | –
26 | Nc1ncnc2c1ncn2C[C@@H](O)[C@@H](O)C(=O)O [MMV689255] | 18% | 2% | 3.4% | -1.3% | – | – | – | – | –
27 | CC(c1cc(Cl)cc(Cl)c1)N(C)c1ncc2c(N)nc(N)nc2n1 (stereo not drawn) [MMV689437] | – | – | – | – | -3% | 9% | -12% | 3.6% | –
28 | CNc1cc(C)nc(C2CN(C(=O)c3n[nH]c4ccccc34)CCO2)c1 (stereo not drawn) [MMV689709] | – | – | – | – | -1.4% | 1.3% | 8% | 3.8% | –
29 | COc1nc2ccc(Br)cc2cc1[C@@H](c1ccccc1)[C@@](O)(CCN(C)C)c1cccc2ccccc12 [MMV689758] | 19% | 10% | 9% | -1.4% | – | – | – | – | –
30 | COc1ccc(C2=NN(C3CCCCCC3)C(=O)[C@H]3CC=CC[C@@H]23)cc1OCCCCOc1ccc(-c2nn[nH]n2)cc1 [MMV690027] | – | – | 6.4% | -1.8% | – | – | – | – | inhibition at 5 µM (cruzain; read-out: Inhibition at 5 µM (Mean ± SEM %) Cruzain 0′, 5 µM, no pre-incubation, initial screening): 50 ± 5%; inhibition at 5 µM (cruzain; read-out: Inhibition at 5 µM (Mean ± SEM %) Cruzain 10′ inc, 5 µM, 10′ pre-incubation, initial screening): 33 ± 2%; inhibition at 5 µM (cruzain; read-out: Inhibition of cruzain or TbrCatL (either enzyme) in the initial screening, 5 µM, either cruzain or TbrCatL, with or without pre-incubation): ≥ 40%; inhibition at 5 µM (TbrCatL; read-out: Inhibition at 5 µM (Mean ± SEM %) TbrCatL 0′): 6 ± 2%; inhibition at 5 µM (TbrCatL; read-out: Inhibition at 5 µM (Mean ± SEM %) TbrCatL 10′ inc): 0%
31 | COc1ccc(Oc2ccc([C@@H](C)N(C)c3ncc4c(N)nc(N)nc4n3)cc2)cc1 [MMV690102] | – | – | – | – | 0.4% | 12% | -2.5% | 14% | –
32 | C[C@H](c1ccc2c(c1)CCCC2)N(C)c1ncc2c(N)nc(N)nc2n1 [MMV690103] | – | – | – | – | -2.7% | 16% | -18% | -22% | –
33 | CCc1ccc(C(NCc2nc(N)nc(N(C)C)n2)C(C)C)cc1 (stereo not drawn) [MMV1019989] | – | – | – | – | -10% | -7% | -6% | -5% | –
34 | O=C(Nc1nc(-c2ccccn2)cs1)C1CC1c1ccccc1F (stereo not drawn) [MMV1028806] | 24% | 17% | 17% | 3.6% | – | – | – | – | –
35 | CNC(=O)CNc1nc(-c2ccccn2)nc2scc(-c3ccccc3)c12 [MMV1029203] | – | – | – | – | -6% | 28% | -10% | -7% | –
36 | CCCn1c(NC(=O)c2ccc3ccccc3n2)nc2ccccc21 [MMV1030799] | – | – | – | – | -3.4% | 2.4% | -8% | -11% | –
37 | CCNC(=O)C(C)Nc1nc(-c2cccnc2)nc2sc(C)c(C)c12 (stereo not drawn) [MMV1037162] | – | – | – | – | -0.8% | 1.7% | 6% | -0.5% | –
38 | Cc1ccc(-c2nc(CN(Cc3ccccn3)C(C)C)cs2)o1 [MMV1088520] | – | – | – | – | -17% | -15% | -6% | -24% | –
39 | COc1cccn2c(C(=O)N3CCCCC3)c(C(F)(F)F)nc12 [MMV1110498] | 8% | 9% | 13% | 6.4% | – | – | – | – | –
